Data reported in patent US11993600B2, “Saturated spirocyclics as antiviral agents” (ENANTA PHARMACEUTICALS, INC., priority 2021, dated 2024).

Target: SARS-CoV-2 3CL-protease (Severe acute respiratory syndrome coronavirus 2 (2019-nCoV) (SARS-CoV-2), UniProt P0DTD1)
Experiment: SARS-CoV-2 3C-like (3CL) protease fluorescence assay (FRET)
Type: biochemical
Conditions: recombinant SARS-CoV-2 3CL-protease 10 nM, 30 min preincubation at RT, substrate 40 μM, run in duplicate

CN(C(=O)c1cc2c(F)cc(F)cc2[nH]1)[C@@H](CC(C)(C)F)C(=O)N1C[C@]2(CCNC2=O)C[C@H]1C#N [Compound 1, N—((S)-1-((3S,5S)-3-cyano-6-oxo-2,7-diazaspiro[4.4]nonan-2-yl)-4-fluoro-4-methyl-1-oxopentan-2-yl)-4,6-difluoro-N-methyl-1H-indole-2-carboxamide]
IC50: < 100 nM

CC(C)C[C@@H](C(=O)N1C[C@]2(CCCNC2=O)C[C@H]1C#N)N(C)C(=O)c1cc2c(F)cc(F)cc2[nH]1 [Compound 2, N—((S)-1-((3S,5S)-3-cyano-6-oxo-2,7-diazaspiro[4.5]decan-2-yl)-4-methyl-1-oxopentan-2-yl)-4,6-difluoro-N-methyl-1H-indole-2-carboxamide]
IC50: < 100 nM

CN(C(=O)c1cc2c(F)cc(F)cc2[nH]1)[C@@H](CC(C)(C)F)C(=O)N1C[C@]2(CCCNC2=O)C[C@H]1C#N [Compound 3, N—((S)-1-((3S,5S)-3-cyano-6-oxo-2,7-diazaspiro[4.5]decan-2-yl)-4-fluoro-4-methyl-1-oxopentan-2-yl)-4,6-difluoro-N-methyl-1H-indole-2-carboxamide]
IC50: < 100 nM

CC(C)C[C@@H](C(=O)N1C[C@]2(CCC3(CC3)NC2=O)C[C@H]1C#N)N(C)C(=O)c1cc2c(F)cc(F)cc2[nH]1 [Compound 4, N—((S)-1-((6S,9S)-9-cyano-5-oxo-4,8-diazadispiro[2.2.4^6.2^3]dodecan-8-yl)-4-methyl-1-oxopentan-2-yl)-4,6-difluoro-N-methyl-1H-indole-2-carboxamide]
IC50: < 100 nM
